{
  "source": "patent US11717525B2",
  "about": "“Transdermal and/or topical delivery system comprising clobazam” (Alpha to Omega Pharmaceutical Consultants, Inc., priority 2015, dated 2023)",
  "origin": "cited, not measured here",
  "key": {"[1]": {"details": "25° C., practically insoluble"}, "[2]": {"details": "lipophilic in nature"}, "[3]": {"details": "oral administration"}},
  "data": [
    {"compound": "CN1C(=O)CC(=O)N(c2ccccc2)c2cc(Cl)ccc21", "note": "[Clobazam]", "values": [
      {"measurement": "solubility in water", "setting": "[1]", "value": "70 microgram/ml (μg/ml)"},
      {"measurement": "Log P", "setting": "[2]", "value": "around 2.1"},
      {"measurement": "absorbed when taken orally", "setting": "[3]", "value": 87, "unit": "%"}
    ]}
  ]
}
